The record followed here is ChEMBL document CHEMBL3813667, “Triterpene sapogenin-polyarginine conjugates exhibit promising antibacterial activity against Gram-positive strains” (Bioorg Med Chem, 2016).

≈ marks a conversion by molar mass, not a printed value. Calls of active or inactive are those of the source. No cut-off for these calls is given here.

The test system of series [1] is Bacillus spizizenii. The series can be described thus: Antibacterial activity against Bacillus subtilis ATCC 6633 after 16 hrs by broth microdilution method. The class given is functional. To be noted: ATCC 6633, 16 h.
The subject of series [2] is Escherichia coli. The series can be described thus: Antibacterial activity against Escherichia coli ATCC 25922 after 16 hrs by broth microdilution method. The class given is functional. The conditions noted are these: ATCC 25922, 16 h. A general note: In broth dilution the organism is exposed to a series of concentrations in liquid medium.
Series [3] has as its system Staphylococcus aureus. The series can be described thus: Antibacterial activity against Staphylococcus aureus ATCC 25923 after 16 hrs by broth microdilution method. Type of series: functional. The conditions noted are these: ATCC 25923, 16 h.
Series [4] is described as follows: Solubility of the compound in water at 40 mg sonicated for 15 mins at 25 degC measured after 5 hrs. Type of series: physicochemical.
Series [5] has as its system Staphylococcus aureus. The series is described as follows: Antibacterial activity against Staphylococcus aureus ATCC 25923 assessed as cell lysis at 4 times MIC after 2 hrs by transmission electron microscopic analysis. Type of series: functional, organism-based.
Series [6] is described as follows: Selectivity index, ratio of cytotoxicity for human MCF7 cells to MIC for Bacillus subtilis ATCC 6633. The class given is toxicity, cell-based. To be noted: read-out: Selectivity Index.
A short description of series [7]: Therapeutic index, ratio of HC50 for human erythrocytes to MIC for Staphylococcus aureus ATCC 25923. To be noted: read-out: TI.
The nature of series [8]: Therapeutic index, ratio of HC50 for human erythrocytes to MIC for Bacillus subtilis ATCC 6633. To be noted: read-out: TI.
Series [9] can be described thus: Toxicity against human erythrocytes assessed as hemolysis after 1 hr by spectrophotometric analysis. The class given is cell-based, Erythrocyte.
In another series the test system is MCF7. The series is described as follows: Cytotoxicity against human MCF7 cells assessed as cell viability at 62.5 ug/ml after 6 hrs by spectroscopic analysis. The conditions noted are these: mcf7, 6 h. The class given is cell-based.
Series [10] relates to Staphylococcus aureus. The series is described as follows: Antibacterial activity against Staphylococcus aureus ATCC 25923 at 1 mg/ml up to 18 hrs by broth microdilution method in presence of human plasma. The class given is functional. The conditions noted are these: ATCC 25923, Plasma.
Series [11] is described as follows: Metabolic stability in human plasma assessed as compound remaining after 18 hrs by HPLC analysis. To be noted: read-out: Stability. Type of series: ADME, cell-free.
The subject of series [12] is Staphylococcus aureus. The series is described as follows: Antibacterial activity against Staphylococcus aureus ATCC 25923 assessed as disruption of cell membrane at 4 times MIC after 2 hrs by DAPI/propidium iodide dye staining based confocal laser scanning microscopic analysis. Type of series: functional, organism-based.
The test system of series [13] is Staphylococcus aureus. The series is described as follows: Ratio of MIC for antibacterial activity against Staphylococcus aureus ATCC 25923 in absence of human plasma to MIC for antibacterial activity against Staphylococcus aureus ATCC 25923 in presence of human plasma. Type of series: functional.
The test system of series [14] is Staphylococcus aureus. The series can be described thus: Antibacterial activity against Staphylococcus aureus ATCC 25923 at 1 mg/ml after 3 hrs by broth microdilution method in presence of human plasma. The class given is functional. The conditions noted are these: ATCC 25923, Plasma.
The subject of series [15] is Staphylococcus aureus. The series is described as follows: Antibacterial activity against Staphylococcus aureus ATCC 25923 after 16 hrs by broth microdilution method in presence of peptide-R3. Type of series: functional. The conditions noted are these: ATCC 25923, 16 h.
Series [16] concerns Escherichia coli. The series can be described thus: Antibacterial activity against Escherichia coli ATCC 25922 after 16 hrs by broth microdilution method in presence of peptide-R3. Type of series: functional. The conditions noted are these: ATCC 25922, 16 h.
Series [17] deals with Bacillus spizizenii. The series is described as follows: Antibacterial activity against Bacillus subtilis ATCC 6633 after 16 hrs by broth microdilution method in presence of peptide-R3. The class given is functional. To be noted: ATCC 6633, 16 h.
The nature of series [18]: Metabolic stability in human plasma assessed as compound remaining after 6 hrs by HPLC analysis. The conditions noted are these: read-out: Stability. The class given is ADME, cell-free.

By MIC is commonly meant the lowest concentration found to suppress growth. A word on the solubility: it is the concentration that dissolves in the medium under given conditions. A high value points to a readily soluble substance. With `C=C(C)[C@@H]1CC[C@]2(C(=O)OCc3cn(CC(=O)N[C@@H](CCCNC(=N)N)C(=O)N[C@@H](CCCNC(=N)N)C(=O)O)nn3)CC[C@]3(C)[C@H](CC[C@@H]4[C@@]5(C)CC[C@H](O)C(C)(C)[C@@H]5CC[C@]43C)[C@@H]12`, the minimal inhibitory concentration (MIC) in the series on Bacillus spizizenii [1] was 4.3 µM (≈ 3.91 µg/mL); with Escherichia coli [2], more than 138 µM; against Staphylococcus aureus [3], 8.6 µM (≈ 7.81 µg/mL). Moreover, in series [4], the concentration in solution (solubility at 5 h) was 48 mg/mL (≈ 52.9 mM).

What is called HC50 is the concentration giving 50% haemolysis. Take `C=C(C)[C@@H]1CC[C@]2(C(=O)O)CC[C@]3(C)[C@H](CC[C@@H]4[C@@]5(C)CC[C@H](OC(=O)CCc6cn(CC(=O)N[C@@H](CCCNC(=N)N)C(=O)N[C@@H](CCCNC(=N)N)C(=O)N[C@@H](CCCNC(=N)N)C(=O)O)nn6)C(C)(C)[C@@H]5CC[C@]43C)[C@@H]12`: the result in the series on Staphylococcus aureus [5] and in the series with Staphylococcus aureus [12] was Active. Besides, the selectivity ratio stood at 20 in [6], 62 in [7] and 125 in [8]. Also, the MIC against Bacillus spizizenii [1] was 1.8 µM (≈ 1.99 µg/mL); in the series with Escherichia coli [2], more than 113 µM; in the series on Staphylococcus aureus [3] it was 3.5 µM (≈ 3.87 µg/mL); with Staphylococcus aureus [10] it was 3.5 µM; in the series with Staphylococcus aureus [14] it was 3.5 µM. In addition, the concentration for 50% haemolysis (HC50) at 1 h in series [9] was found to be 215 µM. In the series on MCF7, the Activity entry was “Non-toxic”. Besides, the remaining at 18 h in [11] turned out to be 87%. In addition, in the series with Staphylococcus aureus [13], the Ratio is recorded as 2.

Consider `C=C(C)[C@@H]1CC[C@]2(C(=O)OCc3cn(CC(=O)N[C@@H](CCCNC(=N)N)C(=O)O)nn3)CC[C@]3(C)[C@H](CC[C@@H]4[C@@]5(C)CC[C@H](O)C(C)(C)[C@@H]5CC[C@]43C)[C@@H]12`, for which the MIC in the series on Bacillus spizizenii [1] was 83 µM (≈ 62.4 µg/mL); in the series on Escherichia coli [2], more than 166 µM; with Staphylococcus aureus [3], more than 166 µM. For the same molecule, in series [8], the selectivity ratio was 5. The 50% haemolytic concentration (HC50) at 1 h in series [9] came out at 397 µM. This molecule registered a solubility at 5 h in series [4] of 1.3 mg/mL (≈ 1.73 mM).

`C=C(C)[C@@H]1CC[C@]2(C(=O)OCc3cn(CC(=O)N[C@@H](CCCNC(=N)N)C(=O)N[C@@H](CCCNC(=N)N)C(=O)N[C@@H](CCCNC(=N)N)C(=O)N[C@@H](CCCNC(=N)N)C(=O)N[C@@H](CCCNC(=N)N)C(=O)O)nn3)CC[C@]3(C)[C@H](CC[C@@H]4[C@@]5(C)CC[C@H](O)C(C)(C)[C@@H]5CC[C@]43C)[C@@H]12`: the MIC in the series on Bacillus spizizenii [1] is 2.8 µM (≈ 3.85 µg/mL); in the series on Escherichia coli [2], more than 91 µM; against Staphylococcus aureus [3], 5.7 µM (≈ 7.85 µg/mL). Moreover, the selectivity ratio was 6 in series [7] and 12 in series [8]. Besides, the HC50 at 1 h in series [9] came out at 35 µM. In addition, the solubility at 5 h in series [4] stood at 220 mg/mL (≈ 160 mM).

For `C=C(C)[C@@H]1CC[C@]2(C(=O)OCc3cn(CC(=O)N[C@@H](CCCNC(=N)N)C(=O)N[C@@H](CCCNC(=N)N)C(=O)N[C@@H](CCCNC(=N)N)C(=O)O)nn3)CC[C@]3(C)[C@H](CC[C@@H]4[C@@]5(C)CC[C@H](O)C(C)(C)[C@@H]5CC[C@]43C)[C@@H]12`, the MIC stood at 3.7 µM (≈ 3.94 µg/mL) in the series on Bacillus spizizenii [1], 14.7 µM (≈ 15.6 µg/mL) in the series with Escherichia coli [2] and 3.7 µM (≈ 3.94 µg/mL) against Staphylococcus aureus [3]. For the same molecule, the selectivity ratio in [7] and in [8] was 22 each time. Also, in series [9], the HC50 at 1 h was 80 µM. In series [4], this molecule came in with a solubility at 5 h of 98 mg/mL (≈ 92.1 mM).

On to `C=C(C)[C@@H]1CC[C@]2(C(=O)OCc3cn(CC(=O)N[C@@H](CCCNC(=N)N)C(=O)N[C@@H](CCCNC(=N)N)C(=O)N[C@@H](CCCNC(=N)N)C(=O)N[C@@H](CCCNC(=N)N)C(=O)N[C@@H](CCCNC(=N)N)C(=O)N[C@@H](CCCNC(=N)N)C(=O)N[C@@H](CCCNC(=N)N)C(=O)N[C@@H](CCCNC(=N)N)C(=O)O)nn3)CC[C@]3(C)[C@H](CC[C@@H]4[C@@]5(C)CC[C@H](O)C(C)(C)[C@@H]5CC[C@]43C)[C@@H]12`, for which the selectivity ratio in [7] and in series [8] was 13 in each case. Further, in series [9], the HC50 at 1 h is 55 µM. This molecule yielded a solubility at 5 h in series [4] of 636 mg/mL (≈ 345 mM).

In the case of `C=C(C)[C@@H]1CC[C@]2(C(=O)O)CC[C@]3(C)[C@H](CC[C@@H]4[C@@]5(C)CC[C@H](O)C(C)(C)[C@@H]5CC[C@]43C)[C@@H]12` [BETULINIC ACID], the MIC with Bacillus spizizenii [1] was 547 µM (≈ 250 µg/mL); with Escherichia coli [2], more than 1100 µM; in the series on Staphylococcus aureus [3], 547 µM (≈ 250 µg/mL); with Staphylococcus aureus [15], more than 531 µM; in the series on Escherichia coli [16] it was more than 531 µM; in the series with Bacillus spizizenii [17], more than 531 µM.

For the molecule `C[C@H]1[C@H](C)CCC2(C(=O)O)CC[C@]3(C)C(=CC[C@@H]4[C@@]5(C)CC[C@H](OC(=O)CCc6cn(CC(=O)N[C@@H](CCCNC(=N)N)C(=O)N[C@@H](CCCNC(=N)N)C(=O)N[C@@H](CCCNC(=N)N)C(=O)N[C@@H](CCCNC(=N)N)C(=O)N[C@@H](CCCNC(=N)N)C(=O)N[C@@H](CCCNC(=N)N)C(=O)N[C@@H](CCCNC(=N)N)C(=O)N[C@@H](CCCNC(=N)N)C(=O)O)nn6)C(C)(C)[C@@H]5CC[C@]43C)[C@H]12` (single isomer, unassigned), the minimal inhibitory concentration (MIC) is 4.1 µM (≈ 7.74 µg/mL) in the series on Bacillus spizizenii [1], more than 66 µM in the series on Escherichia coli [2] and 4.1 µM (≈ 7.74 µg/mL) with Staphylococcus aureus [3]. For the same molecule, the selectivity ratio in series [7] and in series [8] was more than 103 in each case. Moreover, the HC50 at 1 h in series [9] is more than 424 µM.

For H-GIGKFLKKAKKFGKAFVKILKK-OH, the minimum inhibitory concentration (MIC) in the series with Bacillus spizizenii [1] was 1.5 µM; with Escherichia coli [2] it was 3.1 µM; in the series with Staphylococcus aureus [3] it was 1.5 µM. The remaining at 6 h in series [18] came out at 54%. The selectivity ratio in [7] and in series [8] was 100 each time. In addition, the HC50 at 1 h in series [9] came to 153 µM. Besides, the remaining at 18 h in series [11] was 1%.
